Values after ≈ are worked out from the molar mass of the structure shown.
What was measured:
Type in all cases: functional
[1] = tested on: Escherichia coli; experiment: Antimicrobial activity against tolC deficient Escherichia coli KD65 by CLSI-based broth microdilution method; conditions: Escherichia coli, KD65; read-out: MIC
[2] = tested on: Pseudomonas aeruginosa; experiment: Antimicrobial activity against Pseudomonas aeruginosa PAO1 by CLSI-based broth microdilution method
[3] = tested on: Staphylococcus aureus; experiment: Antimicrobial activity against Staphylococcus aureus ATCC 29213 by CLSI-based broth microdilution method; conditions: Staphylococcus aureus, ATCC 29213; read-out: MIC
[4] = tested on: Mycobacterium tuberculosis; experiment: Antimicrobial activity against Mycobacterium tuberculosis H37Rv ATCC 27294 incubated for 7 days by microplate Alamar blue assay; conditions: H37Rv ATCC 27294, 168 h
[5] = tested on: Enterococcus faecium; experiment: Antimicrobial activity against Enterococcus faecium ATCC 700221 incubated for 18 to 24 hrs by two-fold serial dilution method
[6] = tested on: Staphylococcus epidermidis; experiment: Antimicrobial activity against methicillin-susceptible Staphylococcus epidermidis ATCC 12228 incubated for 18 to 24 hrs by two-fold serial dilution method
[7] = tested on: Staphylococcus aureus; experiment: Antimicrobial activity against methicillin-resistant Staphylococcus aureus ATCC 33591 incubated for 18 to 24 hrs by two-fold serial dilution method
[8] = tested on: Staphylococcus aureus; experiment: Antimicrobial activity against methicillin-susceptible Staphylococcus aureus ATCC 29213 incubated for 18 to 24 hrs by two-fold serial dilution method

Compound | MIC [1] [µg/mL] | MIC [2] [µg/mL] | MIC [3] [µg/mL] | MIC [4] [µM] | MIC [5] [µg/mL] | MIC [6] [µg/mL] | MIC [7] [µg/mL] | MIC [8] [µg/mL]
N[C@H]1CCN2c3c(F)cc4c(=O)c(C(=O)O)cn(C5CC5)c4c3COC[C@H]12 | 0.002 (≈ 0.00536 µM) | 0.25 (≈ 0.67 µM) | 0.0082 (≈ 0.022 µM) |  |  |  |  | 
O=C(O)c1cn(C2CC2)c2c3c(c(F)cc2c1=O)N1CCCC1CCC3 (centres undefined) | 0.18 (≈ 0.505 µM) | 17 (≈ 47.7 µM) | 0.1 (≈ 0.281 µM) |  |  |  |  | 
N[C@H]1C[C@@H]2CC=Cc3c(c(F)cc4c(=O)c(C(=O)O)cn(C5CC5)c34)N2C1 | 0.008 (≈ 0.0217 µM) | 0.22 (≈ 0.596 µM) | ≤ 0.06 |  |  |  |  | 
COc1c(N2CCN(C/C(C)=N/NC(=O)c3ccc([N+](=O)[O-])cc3)CC2)c(F)cc2c(=O)c(C(=O)O)cn(C3CC3)c12 |  |  |  | 0.294 (≈ 0.171 µg/mL) | 128 (≈ 220 µM) | 0.125 (≈ 0.215 µM) | 0.25 (≈ 0.431 µM) | 0.25 (≈ 0.431 µM)
O=C(O)c1cn(C2CC2)c2c3c(c(F)cc2c1=O)N1CCCC1CNC3 (centres undefined) | 0.125 (≈ 0.35 µM) | 16 (≈ 44.8 µM) | 0.25 (≈ 0.7 µM) |  |  |  |  | 
COc1c(N2CCN(C/C(C)=N/NC(=O)c3ccc(Cl)cc3)CC2)c(F)cc2c(=O)c(C(=O)O)cn(C3CC3)c12 |  |  |  | 0.272 (≈ 0.155 µg/mL) | 32 (≈ 56.1 µM) | 0.125 (≈ 0.219 µM) | 0.125 (≈ 0.219 µM) | 0.125 (≈ 0.219 µM)
N[C@@H]1C[C@H]2CC=Cc3c(c(F)cc4c(=O)c(C(=O)O)cn(C5CC5)c34)N2C1 | 2 (≈ 5.41 µM) | 32 (≈ 86.6 µM) | 2 (≈ 5.41 µM) |  |  |  |  | 
N[C@H]1CCN2c3c(F)cc4c(=O)c(C(=O)O)cn(C5CC5)c4c3C=NC[C@H]12 | ≤ 0.06 | 0.5 (≈ 1.35 µM) | 2 (≈ 5.4 µM) |  |  |  |  | 
COc1cccc(N/N=C(\C)CN2CCN(c3c(F)cc4c(=O)c(C(=O)O)cn(C5CC5)c4c3OC)CC2)c1 |  |  |  | 0.434 (≈ 0.233 µg/mL) | > 64 | 0.25 (≈ 0.465 µM) | 0.125 (≈ 0.233 µM) | 0.125 (≈ 0.233 µM)
O=C(O)c1cn(C2CC2)c2c3c(c(F)cc2c1=O)N1CCCC1CN=C3 (centres undefined) | 0.25 (≈ 0.703 µM) | 2 (≈ 5.63 µM) | 0.25 (≈ 0.703 µM) |  |  |  |  | 
N[C@@H]1C[C@@H]2CCCc3c(c(F)cc4c(=O)c(C(=O)O)cn(C5CC5)c34)N2C1 | 0.25 (≈ 0.673 µM) | 1 (≈ 2.69 µM) | 0.25 (≈ 0.673 µM) |  |  |  |  | 
N[C@H]1C[C@H]2CCCc3c(c(F)cc4c(=O)c(C(=O)O)cn(C5CC5)c34)N2C1 | 0.015 (≈ 0.0404 µM) | 0.5 (≈ 1.35 µM) | 0.5 (≈ 1.35 µM) |  |  |  |  | 
N[C@@H]1CCN2c3c(F)cc4c(=O)c(C(=O)O)cn(C5CC5)c4c3CC[C@H]12 | 0.004 (≈ 0.0112 µM) | 0.5 (≈ 1.4 µM) | 0.03 (≈ 0.0839 µM) |  |  |  |  | 
N[C@H]1CCN2c3c(F)cc4c(=O)c(C(=O)O)cn(C5CC5)c4c3CCC[C@H]12 | 0.004 (≈ 0.0108 µM) | 0.29 (≈ 0.781 µM) | 0.015 (≈ 0.0404 µM) |  |  |  |  | 
CC(=O)N1Cc2c(c(F)cc3c(=O)c(C(=O)O)cn(C4CC4)c23)N2CCCC2C1 (centres undefined) | 0.2 (≈ 0.501 µM) | > 16 | 0.082 (≈ 0.205 µM) |  |  |  |  | 
COc1c(N2CCN(C/C(C)=N/NC(=O)c3ccc(O)cc3)CC2)c(F)cc2c(=O)c(C(=O)O)cn(C3CC3)c12 |  |  |  | 0.21 (≈ 0.116 µg/mL) | 64 (≈ 116 µM) | 0.06 (≈ 0.109 µM) | 0.06 (≈ 0.109 µM) | 0.125 (≈ 0.227 µM)
COc1c(N2CCN(C/C(C)=N/Nc3ccc(F)c(Cl)c3)CC2)c(F)cc2c(=O)c(C(=O)O)cn(C3CC3)c12 |  |  |  | 0.396 (≈ 0.222 µg/mL) | 64 (≈ 114 µM) | 0.125 (≈ 0.223 µM) | 0.125 (≈ 0.223 µM) | 0.125 (≈ 0.223 µM)
N[C@H]1CCN2c3c(F)cc4c(=O)c(C(=O)O)cn(C5CC5)c4c3C=CC[C@H]12 | 0.0022 (≈ 0.00596 µM) | 0.16 (≈ 0.433 µM) | 0.007 (≈ 0.0189 µM) |  |  |  |  | 
N[C@@H]1CCN2c3c(F)cc4c(=O)c(C(=O)O)cn(C5CC5)c4c3C=C[C@H]12 | 1 (≈ 2.81 µM) | > 64 | 8 (≈ 22.5 µM) |  |  |  |  | 
COc1c(N2CCN(C/C(C)=N/Nc3nc4ccccc4s3)CC2)c(F)cc2c(=O)c(C(=O)O)cn(C3CC3)c12 |  |  |  | 0.313 (≈ 0.177 µg/mL) | 64 (≈ 113 µM) | 0.5 (≈ 0.886 µM) | 0.5 (≈ 0.886 µM) | 0.25 (≈ 0.443 µM)
C/N=C1/Cc2c(c(F)cc3c(=O)c(C(=O)O)cn(C4CC4)c23)N2CCCC2C1 (centres undefined) | 0.06 (≈ 0.156 µM) | > 32 | 0.25 (≈ 0.652 µM) |  |  |  |  | 
N[C@H]1C[C@H]2CCOc3c(c(F)cc4c(=O)c(C(=O)O)cn(C5CC5)c34)N2C1 | 0.004 (≈ 0.0107 µM) | 0.093 (≈ 0.249 µM) | 0.015 (≈ 0.0402 µM) |  |  |  |  | 
N[C@@H]1CCN2c3c(F)cc4c(=O)c(C(=O)O)cn(C5CC5)c4c3C=CC[C@H]12 | 0.06 (≈ 0.162 µM) | 0.38 (≈ 1.03 µM) | 0.045 (≈ 0.122 µM) |  |  |  |  | 
COc1c(N2CCN(C/C(C)=N/NC(=O)c3ccc(F)cc3)CC2)c(F)cc2c(=O)c(C(=O)O)cn(C3CC3)c12 |  |  |  | 0.266 (≈ 0.147 µg/mL) | > 64 | 0.125 (≈ 0.226 µM) | 0.125 (≈ 0.226 µM) | 0.125 (≈ 0.226 µM)
COc1c(N2CCN(C/C(C)=N/Nc3ccccn3)CC2)c(F)cc2c(=O)c(C(=O)O)cn(C3CC3)c12 |  |  |  | 0.372 (≈ 0.189 µg/mL) | 64 (≈ 126 µM) | 0.125 (≈ 0.246 µM) | 0.125 (≈ 0.246 µM) | 0.125 (≈ 0.246 µM)
O=C(O)c1cn(C2CC2)c2c3c(c(F)cc2c1=O)N1CCCC1CC=C3 (centres undefined) | 0.03 (≈ 0.0847 µM) | 1 (≈ 2.82 µM) | 0.5 (≈ 1.41 µM) |  |  |  |  | 
COc1c(N2CCN(C/C(C)=N/Nc3ccc(C(F)(F)F)cc3)CC2)c(F)cc2c(=O)c(C(=O)O)cn(C3CC3)c12 |  |  |  | 0.394 (≈ 0.227 µg/mL) | 64 (≈ 111 µM) | 0.25 (≈ 0.434 µM) | 0.125 (≈ 0.217 µM) | 0.125 (≈ 0.217 µM)
